The source of these data is patent publication US20180036270A1, “A METHOD OF PROTECTING AGAINST CARBONYL STRESS INDUCED ISCHEMIA-REPERFUSION INJURY IN THE DIABETIC BRAIN VIA ADMINISTRATION OF N-ACETYLCYSTEINE” (Board of Supervisors of Louisiana State University and …, priority 2015, published 2018).

Series [1] deals with T1, glutamate cysteine ligase (GCL) (Homo sapiens, UniProt P48506).
T1 sequence (P48506 1-637): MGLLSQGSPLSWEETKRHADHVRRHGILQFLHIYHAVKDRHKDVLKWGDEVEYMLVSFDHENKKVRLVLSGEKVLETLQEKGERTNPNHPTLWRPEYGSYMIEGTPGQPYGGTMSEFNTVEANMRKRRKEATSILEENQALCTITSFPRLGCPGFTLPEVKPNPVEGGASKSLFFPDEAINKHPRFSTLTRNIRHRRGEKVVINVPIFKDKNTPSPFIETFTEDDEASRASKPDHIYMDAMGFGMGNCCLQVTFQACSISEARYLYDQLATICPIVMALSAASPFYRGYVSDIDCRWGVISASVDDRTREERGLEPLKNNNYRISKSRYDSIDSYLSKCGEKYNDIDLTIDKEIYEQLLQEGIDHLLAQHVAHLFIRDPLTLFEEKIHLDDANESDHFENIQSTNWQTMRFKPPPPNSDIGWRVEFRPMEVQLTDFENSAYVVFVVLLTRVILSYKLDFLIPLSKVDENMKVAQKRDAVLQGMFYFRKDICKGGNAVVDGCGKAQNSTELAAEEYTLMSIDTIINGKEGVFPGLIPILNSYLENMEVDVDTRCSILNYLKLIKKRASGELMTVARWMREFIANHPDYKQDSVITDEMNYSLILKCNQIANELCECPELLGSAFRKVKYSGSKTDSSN
T1 sequence (P48507 1-274 partner): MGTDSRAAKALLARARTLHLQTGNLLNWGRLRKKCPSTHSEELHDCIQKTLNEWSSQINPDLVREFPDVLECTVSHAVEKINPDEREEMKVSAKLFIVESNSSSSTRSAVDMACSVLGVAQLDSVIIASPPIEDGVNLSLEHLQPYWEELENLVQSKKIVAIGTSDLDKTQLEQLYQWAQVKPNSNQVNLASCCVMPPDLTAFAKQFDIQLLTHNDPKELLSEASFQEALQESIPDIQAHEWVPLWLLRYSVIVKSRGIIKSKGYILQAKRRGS
The conditions noted are these: after brain ischemia/reperfusion, in the presence of BSO; cited from earlier work.

The subject of series [2] is brain GSH and cysteine contents. The series can be described thus: Brain GSH and cysteine by HPLC. It is filed as in vivo, mouse. Conditions: vehicle mice given BSO, inhibition of GSH synthesis. An excerpt: Four-week-old male C57BL/6J mice, weighing 18-20 g, were purchased from Jackson Laboratory. These mice were maintained at the Animal Facility of the Louisiana State University Health Sciences Center—Shreveport. Animal care and use in the experiments follow the guidelines in the Guide for the Care and Use of Laboratory Animals, published by the US National Institutes of Health. Following adaptation for 1 week, the mice were divided randomly into 4 groups: non-treated sham operation group (NT-sham group, n=6), non-treated I/R group (NT-I/R group, n=5), vehicle I/R group (Veh-I/R group, n=24), and streptozotocin I/R group (STZ-I/R group, n=19). […] On day 7, mice whose plasma glucose was more than 300 mg/dl were deemed to be diabetic. From diabetes onset at week 1, a group of diabetic mice were given 0.2 mM NAC in the drinking water for 3 weeks (n=3; a total of 4 weeks diabetes, 3 weeks NAC) or 1 week (n=9; a total of 2 weeks diabetes, 1 week NAC). Veh-I/R mice were injected with citrate buffer for consecutive 5 days, and a group of Veh-treated mice were given 0.2 mM NAC for 2 weeks in the drinking water before the ischemia operation (Veh+NAC group, n=8). Another Veh-treated mice were injected (intraperitoneally, 12 hr interval) with 0.5M BSO 24 h before the ischemia operation and during the 24 h reperfusion period (Veh+BSO group, n=10). All mice were 9 weeks old at sacrifice.
Tissue contents of GSH, cysteine and γGC were determined by high-performance liquid chromatography (HPLC). […] Separation of GSH, cysteine and γGC derivatives whose peaks were detected at 365 nm wavelength was performed on a 250×4.6-mm Alltech Lichrosorb NH2 10 μm anion-exchange column. GSH, cysteine and γGC contents were quantified by comparison to standards derivatized in the same manner. Protein pellets were dissolved in 1 M NaOH for protein quantitation and GSH, cysteine and γGC concentrations were expressed as nanomoles per mg protein.

The subject of another series is Akita diabetic mouse. The series can be described thus: Akita model: platelet-neutrophil aggregates and thrombosis onset and cessation. Type of series: in vivo. Conditions: Akita diabetic mice, insulin treatment. An excerpt: FIGS. 28A-28C are three bar graphs showing percent platelet-neutrophil aggregate formation (FIG. 28A), time to onset of thrombosis (FIG. 28B), and time to cessation of thrombosis (FIG. 28C) for Akita non-diabetic mouse, Akita diabetic mouse, Akita diabetic mouse plus insulin, and Akita diabetic mouse plus insulin and NAC; and
Akita model: like STZ model, shown in FIGS. 28A-28C percent platelet-neutrophil aggregate formation is increased, and time to onset and cessation in thrombosis are accelerated in arterioles and venules. Again this reiterates that the effects of diabetes may be “global” rather than confined to one type/cause of diabetes. […] The data evidences that glucose control, which is the current treatment, is not completely effective and that co-treatment with NAC is very effective. […] It appears that insulin and NAC are additive/synergistic.

Series [3] has as its system rat thoracic aortic rings. The conditions noted are these: 100 μM MG for 24 h; cited from earlier work.
For series [4], the system named is human brain microvascular endothelial cell. The series can be described thus: Endothelial barrier permeability by transendothelial electrical resistance. Type of series: cell-based. The conditions noted are these: MG alone. The procedure: Moreover, treatment with 100 μM MG in rat thoracic aortic rings for 24 h decreases acetylcholine-induced vascular relaxation via a reduction in p-eNOS (Ser1177) and p-AMPKα (Thr172). MG can reduce endothelial angiogenesis through RAGE-mediated, ONOO(^−)-dependent and autophagy-induced VEGFR2 degradation. […] This is exacerbated by GSH synthesis inhibition and prevented by NAC. The enhanced MG concentration in diabetic patients can also directly contribute to the platelet dysfunction associated with diabetes. Platelet dysfunction is characterized by hyperaggregability and reduced thrombus stability via potentiating thrombin-induced platelet aggregation and dense granule release, but inhibiting platelet spreading on fibronectin and collagen. Given that endothelial dysfunction and enhanced platelet activation could promote stroke, these studies indicate that MG can contribute to ischemic brain injury.

For the compound `CCCCS(=N)(=O)CCC(N)C(=O)O` [BSO, L-buthionine sulfoximine], in series [1], the “brain infarction and edema” value is on record as “exacerbated further”. In series [2], the brain cysteine levels result is reported as “higher free cysteine levels”.

With insulin, in the series on Akita diabetic mouse, the platelet-neutrophil aggregate formation entry is “reversal”, the “thrombosis cessation time (time to complete occlusion of the vessel)” value is reported as “did not correct”, the “thrombosis onset time in arterioles” value was “reversal” and the “thrombosis onset time in venules” value was “did not correct”.

For `CC(=O)C=O` [MG, Methylglyoxal], the acetylcholine-induced vascular relaxation entry in series [3] was “decreases”. Further, the “endothelial barrier permeability (loss of transendothelial electrical resistance)” value in series [4] is on record as “increase human brain microvascular endothelial cell barrier permeability”.
